In patent publication US20060035901A1, “Methotrexate derivatives useful for treating cancer and arthritis” (Serenex, Inc., priority 2004, published 2006):

Tests used:
[1] = biological target: T1, DHFR (Homo sapiens, UniProt P00374); assay: DHFR enzymatic assay; type: biochemical; details: determined by enzymatic assay
T1 sequence (P00374 1-187): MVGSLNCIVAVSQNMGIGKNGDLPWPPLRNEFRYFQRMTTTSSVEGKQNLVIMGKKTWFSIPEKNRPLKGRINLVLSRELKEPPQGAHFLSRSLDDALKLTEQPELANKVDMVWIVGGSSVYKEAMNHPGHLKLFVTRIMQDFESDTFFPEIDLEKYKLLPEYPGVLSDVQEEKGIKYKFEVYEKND

[2] = biological target: T2, pyruvate carboxylase (PYC) (Sus scrofa, UniProt A0A8W4F6F0); assay: Elution of PYC from ATP-Sepharose column loaded with porcine liver proteome, IC50 estimate; type: binding; details: estimated from percent of protein eluted from ATP-Sepharose column, read-out: Approximate IC50 for PYC
T2 construct: a porcine liver proteome was run over an ATP-Sepharose™ column; from tissue; host or cells: porcine liver
T2 sequence (A0A8W4F6F0 1-1157): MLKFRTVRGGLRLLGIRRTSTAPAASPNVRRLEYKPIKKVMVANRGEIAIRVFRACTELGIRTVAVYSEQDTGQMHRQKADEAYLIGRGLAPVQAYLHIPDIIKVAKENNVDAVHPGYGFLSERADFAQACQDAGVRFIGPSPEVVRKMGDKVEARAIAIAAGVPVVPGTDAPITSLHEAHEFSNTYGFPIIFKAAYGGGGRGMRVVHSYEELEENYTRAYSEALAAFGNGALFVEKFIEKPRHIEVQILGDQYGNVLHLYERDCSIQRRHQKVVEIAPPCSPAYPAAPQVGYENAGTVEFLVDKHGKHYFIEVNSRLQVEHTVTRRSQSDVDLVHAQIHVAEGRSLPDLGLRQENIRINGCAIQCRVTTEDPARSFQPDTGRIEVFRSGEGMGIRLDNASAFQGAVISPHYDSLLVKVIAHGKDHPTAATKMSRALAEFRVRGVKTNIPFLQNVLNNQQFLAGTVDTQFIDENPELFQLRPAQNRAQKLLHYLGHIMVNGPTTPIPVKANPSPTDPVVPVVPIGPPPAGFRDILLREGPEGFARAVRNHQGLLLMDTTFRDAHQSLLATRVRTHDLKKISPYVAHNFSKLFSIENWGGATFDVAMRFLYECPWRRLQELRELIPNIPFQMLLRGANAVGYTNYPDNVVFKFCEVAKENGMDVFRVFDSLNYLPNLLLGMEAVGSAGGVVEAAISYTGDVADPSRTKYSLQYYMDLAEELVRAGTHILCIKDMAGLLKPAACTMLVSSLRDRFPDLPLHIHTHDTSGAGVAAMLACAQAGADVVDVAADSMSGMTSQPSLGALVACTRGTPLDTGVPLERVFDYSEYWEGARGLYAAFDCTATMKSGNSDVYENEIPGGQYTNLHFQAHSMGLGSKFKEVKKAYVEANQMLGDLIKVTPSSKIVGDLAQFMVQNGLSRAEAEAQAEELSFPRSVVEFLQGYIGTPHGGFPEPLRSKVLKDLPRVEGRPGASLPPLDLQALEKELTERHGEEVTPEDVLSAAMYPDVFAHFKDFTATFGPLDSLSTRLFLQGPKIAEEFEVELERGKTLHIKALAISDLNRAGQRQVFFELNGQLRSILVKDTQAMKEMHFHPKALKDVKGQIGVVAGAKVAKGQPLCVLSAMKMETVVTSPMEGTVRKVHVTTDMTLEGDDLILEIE
Method: Similar experiments were carried out to compare the IC50 values for PYC, PCCA, and PCCB. In these trials, a porcine liver proteome was run over an ATP-Sepharose™ column to bind all purine-binding proteins. The ATP-Sepharose™ column was washed several times, and then eluted with the compound of Formula III at concentrations of 1 μM, 5 μM, 10 μM, 50 μM, 100 μM, and 500 μM to identify proteins that bound to this compound. (The amount of protein eluted at the higher concentration ranges plateaued, thus confirming that the entire fraction of bound protein had been eluted.) The eluted fractions were run on a 1-dimensional SDS polyacrylamide gel.
Gels were stained with a fluorescent stain such as sypro ruby (a highly sensitive fluorescent protein stain that can readily detect less than 1 fmol of total protein, i.e., less than 0.04 ng for a 40 kDa protein). The gels were imaged using a standard flat bed gel imager and the amount of protein estimated by densiometry. The percent of protein eluted from the column at each concentration was determined and IC50 values were calculated from these estimates. Where necessary, the eluted proteins were cut out of the gel, and identified using mass spectral techniques.
These steps were repeated with each of the compounds of Formulas IV-X, MTX, and the c series derivative. The values obtained were then compared to those for DHFR.

SMILES	IC50 [1] [nM]	IC50 [2] [nM]
C#CCN(Cc1cnc2nc(N)nc(N)c2n1)c1ccc(C(=O)NC(CCC(=O)O)C(=O)O)cc1C (centres unmarked) [Formula III, 2-{4-[(2,4-diamino-pteridin-6-ylmethyl)-prop-2-ynyl-amino]-3-methyl-benzoylamino}-pentanedioic acid]	10	3800
C#CCN(Cc1cnc2nc(N)nc(N)c2n1)c1ccc(C(=O)NC(CCC(=O)O)C(=O)O)cc1OC(F)(F)F (centres unmarked) [Formula IX]	118	7000
C#CCN(Cc1cnc2nc(N)nc(N)c2n1)c1ccc(C(=O)NC(CCC(=O)O)C(=O)O)cc1OC (centres unmarked) [Formula VIII]	15	3750
Cc1cc(C(=O)NC(CCC(=O)O)C(=O)O)ccc1N(Cc1ccoc1)Cc1cnc2nc(N)nc(N)c2n1 (centres unmarked) [Formula VII]	15	3500
